Measurements as given in patent publication US9808434B2, “Compound for treating cancer and diabetes” (CITY OF HOPE, priority 2011, dated 2017).

What was measured:
hepatic genes = experiment: Liver gene expression of HFD obese and db/db mice; assay type: in vivo, mouse; conditions: RT-PCR and RNA-seq
Excerpt: Total RNA was isolated from livers of lean, vehicle or COH-SR4-treated HFD mice using standard protocols and subjected to quantitative RT-PCR using primers for key genes associated with lipid and fatty acid synthesis (Acaca, Pparg, Acly, Scd1, Srebf1, Hmgcr, Cpt1, Fasn) and gluconeogenesis (G6pc, Pck1). Livers of db/+ and db/db mice treated with vehicle or COH-SR4 were used for RNA-seq analysis. RNA isolation, purification, sequencing, library preparation and read alignments were done at the City of Hope Functional Genomics Core facility. Differential gene expression was identified from standard Partek workflow (Partek Genomics Suite v6.6, Partek, Inc) using ANOVA, with step-up FDR multiple testing correction p-value of <0.05 and 1.5× fold change. […] Databases utilized included GOTERM_BP_FAT (biological process) and Kyoto Encyclopedia of Genes and Genomes (KEGG_PATHWAY).
Total RNA was isolated from liver of control animals and HFD obese or db/db mice treated with vehicle or COH-SR4 (as described in Example 35). Relative mRNA expression (mean±SEM) of lipogenic and gluconeogenic genes were determined using real time RT-PCR and quantified using the comparative Ct method (FIG. 86A, ^#P<0.05, ^##P<0.01 vs. HFD). […] Key hepatic genes associated with lipid/fatty acid synthesis and glucose and amino acid metabolism regulated by COH-SR4 in db/db mice are shown in FIG. 86D.

GST = experiment: Total GST activity towards CDNB in H358 tumor tissue lysates; assay type: in vivo; conditions: n=3; control 0.32±0.03
Excerpt: The effect of COH-SR4 on signaling pathways of relevance to lung cancer progression was further analyzed by Western-blots of lysates from resected tumors (as described in Example 31). GAPDH was used as internal control. The bar diagrams (FIG. 82B) represent the fold change in the levels of proteins as compared to the controls as determined by densitometry. Dotted line represents no significant change observed when compared to the controls. The COH-SR4 treated groups had high levels of cleaved-PARP compared to the untreated controls, which reinforces the finding of apoptotic effect as observed in-vitro by TUNEL assay. Akt is a signaling protein that transduces the proliferative signals from upstream integrins and growth factor receptors. The COH-SR4 treatments increased the levels of PARP cleavage along with decreased levels of pAkt (S^473). […] In accordance with decreased levels of pAkt (S^473), the levels of pP70S6K were decreased in COH-SR4 treated groups compared to controls. […] COH-SR4 treated tumor tissue lysates were analyzed to test the impact of long term COH-SR4 treatment in vivo on GST expression and activity. […] The total GST activity as measured by activity towards CDNB as a substrate, in COH-SR4 treated tumor tissue lysates was lower compared to the controls [control, 0.32±0.03 U/mg protein; COH-SR4 treated, 0.21±0.05 U/mg protein; (n=3)]. […]

AMPK = AMPK activation in 3T3-L1 cells, Western blot; assay type: cell-based, mouse; conditions: 1 hour
Protocol: Activation of AMPK was associated with the phosphorylation of the α-subunit on Thr-172 of as assessed using phospho-specific antibodies (FIGS. 10A-B). AMPK activation also leads to the increased phosphorylation of the target protein acetyl-CoA carboxylase (ACC) (FIG. 10B).
Cells of each cell lines (Hela, HL-60, and 3T3-L1) were treated for 1 hour with a test compound (COH-SR4, COH-SR9, COH-SR16, or COH-SR18) at a concentration of 1 μM, 3 μM, or 5 μM, or AICAR (5-aminoimidazole-4-carboxamideriboside, an AMPK agonist used as positive control) at a concentration of 500 μM, or none of the above (the untreated cells as negative control). Total cell lysates from the untreated cells and the cells treated with a test compound or AICAR were analyzed by Western blot assay using specific antibodies against phospho-AMPK, phospho-ACC, total AMPK and total ACC.

H1417 = experiment: Colony formation assay, H1417; assay type: cell-based, human; conditions: 1.5 μM
Protocol: (§1) Cell survival was evaluated using a standard colony-forming assay. In total, 1×10^5 cells/mL were incubated with COH-SR4 (1.5 μM or 5 μM) or elesclomol (5 μM) for 24 h, and aliquots of 50 or 100 μL were added to 60 mm size petri dishes, containing 4 mL culture medium. After 7 or 10 days, adherent colonies were fixed, stained with 0.5% methylene blue for 30 min and colonies were counted using the Innotech Alpha Imager HP (91).
The effect of COH-SR4 was first examined in a NCI panel of cancer cell lines, the results of which indicated good activity of COH-SR4 towards lung cancer (FIG. 78A). […] Values are presented as mean±SD from two separate determinations with eight replicates each (n=16) (FIG. 78B). The COH-SR4 treatment exerted a significant inhibitory effect on the survival of lung cancer cells [IC50: H1417 cells-1.2±0.2 μM, H1618 cells-1.5±0.2 μM, H358 cells-2.1±0.2 μM and H520 cells-2.4±0.3 μM]. […] Following initial screening for the anticancer activity of COH-SR4, the effect of COH-SR4 on clonogenic potential was studied. Standard colony-forming assay was performed and the colonies were counted using Innotech Alpha Imager HP. […] The effect of COH-SR4 on induction of apoptosis was further investigated. […] TUNEL assay was performed using Promega fluorescence detection kit and examined using Zeiss LSM 510 META laser-scanning fluorescence microscope with filters 520 and 620 nm. […]

B16F10 cells = experiment: B16F10 cell viability; assay type: cell-based, mouse; conditions: 1-10 μM, 48 hours; vs COH-SR9 and COH-SR18
Protocol: Cells of highly aggressive mouse melanoma cell line B16F10 were incubated with various doses of COH-SR4, COH-SR9 and COH-SR18 (1, 3, 5 or 10 μM) for 48 hours.

SK-Mel-31 = experiment: Colony formation assay, SK-Mel-31; assay type: cell-based, human; conditions: 5 μM
Protocol: as §1

Compound: O=C(Nc1cc(Cl)cc(Cl)c1)Nc1cc(Cl)cc(Cl)c1 [COH-SR4, 1,3-bis(3,5-dichlorophenyl) urea]
- hepatic pathways affected (hepatic genes): downregulated hepatic lipogenesis and glucose metabolic pathways, while upregulating amino acid metabolism
- total GST activity towards CDNB (GST): 0.21±0.05 U/mg protein
- AMPK activation (AMPK): activated AMPK
- colony formation (H1417): 39±8%
- potency in killing B16F10 cells (B16F10 cells): best potency
- colony formation (SK-Mel-31): 40±4%
